Data reported in publication PMC8399014, “Design of Multifaceted Antioxidants: Shifting towards Anti-Inflammatory and Antihyperlipidemic Activity” (Molecules, 2021).
Like-named read-outs stand apart in the source and are kept apart here. Marks after values point to notes of the source that are not given here. Blank lines part the entries; values can stand above or below the compound they belong to.

Key:
[1] = tested on: carrageenan-induced mouse paw edema; assay: Carrageenan-induced mouse paw edema; assay type: in vivo; conditions: for inhibition in vivo at 300 µmol/kg: Mus musculus, ip, 0.30 mmol/kg i.p., 3.5 h after carrageenan, mean of 6 animals, read-out: % Edema Reduction; for improvement in edema reduction: compared to parent mefenamic acid (i)
Method: In vivo anti-inflammatory activity of the synthesized compounds was evaluated as mouse paw edema reduction. Paw edema was induced by subcutaneous injection of a 2% carrageenan suspension in the right paw of mice, the left serving as the control. The activity of the tested compounds (at 0.30 mmol/kg of body weight, i.p.), expressed as % reduction in paw edema 3.5 h after carrageenan injection, is shown in Table 2. […] Moreover, compounds 9 and 10 (antioxidant derivatives of mefenamic acid) caused a 1.5–2-fold improvement in edema reduction compared to that of the parent mefenamic acid (i).
For the in vivo anti-inflammatory activity, Wistar male rats or C57BL/6 mice were injected with 0.025 mL carrageenan (2% w/v solution in saline) i.d. into the right hind paw, with the left paw serving as the control. The test compounds (300 μmol/kg) were given, i.p., after the carrageenan injection, and 3.5 h later, the produced edema was estimated as the paw weight increase. Results are expressed as percentage of the reduction in paw edema and are the means for six animals (per compound).

[2] = tested on: rat/mouse microsomal lipid peroxidation; assay: Inhibition of microsomal lipid peroxidation; assay type: biochemical, C57BL/6 mice; conditions: after 45 min of incubation; read-out: IC50 against microsomal lipid peroxidation
Method: The antioxidant effect of the new compounds, as well as their parent compounds was also evaluated by the protection offered against rat/mouse microsomal lipid peroxidation.
The incubation mixture contained heat-inactivated (90 °C for 90 s) liver microsomal fraction from untreated C57BL/6 mice (corresponding to 2.5 mg of hepatic protein per milliliter or 4 mM fatty acid residues), ascorbic acid (0.2 mM) in Tris–HCl/KCl buffer (50 mM/ 150 mM, pH 7.4), and the studied compounds dissolved in dimethyl sulfoxide (in different concentrations). The reaction was initiated by the addition of a freshly prepared FeSO4 solution (10 μM), and the mixture was incubated at 37 °C for 45 min. Aliquots were taken at various time intervals and lipid peroxidation was assessed by the spectrophotometric (535 against 600 nm) determination of the produced 2-thiobarbituric acid reactive material.

[3] = Radical scavenging of DPPH; conditions: DPPH 200 μM, after incubation for 30 min
Method: The antioxidant activity of compounds 1–17 was evaluated via their ability to scavenge the free radical DPPH.
Compounds dissolved in absolute methanol at concentrations of 25–400 μM were added to an equal volume of a methanolic solution of DPPH (final concentration 200 μM) at room temperature (22 ± 2 °C). Absorbance (517 nm) was recorded at different time intervals for 1 h and results were expressed as IC50 (μM) for DPPH after incubation for 30 min [3].

[4] = target: T1, soybean lipoxygenase (LOX-3) (Glycine max, UniProt P09186); assay: Soybean lipoxygenase (LOX-3) inhibition; assay type: biochemical; conditions: for LOX-3 inhibitory activity (in words): parent antioxidants
T1 sequence (P09186 1-857): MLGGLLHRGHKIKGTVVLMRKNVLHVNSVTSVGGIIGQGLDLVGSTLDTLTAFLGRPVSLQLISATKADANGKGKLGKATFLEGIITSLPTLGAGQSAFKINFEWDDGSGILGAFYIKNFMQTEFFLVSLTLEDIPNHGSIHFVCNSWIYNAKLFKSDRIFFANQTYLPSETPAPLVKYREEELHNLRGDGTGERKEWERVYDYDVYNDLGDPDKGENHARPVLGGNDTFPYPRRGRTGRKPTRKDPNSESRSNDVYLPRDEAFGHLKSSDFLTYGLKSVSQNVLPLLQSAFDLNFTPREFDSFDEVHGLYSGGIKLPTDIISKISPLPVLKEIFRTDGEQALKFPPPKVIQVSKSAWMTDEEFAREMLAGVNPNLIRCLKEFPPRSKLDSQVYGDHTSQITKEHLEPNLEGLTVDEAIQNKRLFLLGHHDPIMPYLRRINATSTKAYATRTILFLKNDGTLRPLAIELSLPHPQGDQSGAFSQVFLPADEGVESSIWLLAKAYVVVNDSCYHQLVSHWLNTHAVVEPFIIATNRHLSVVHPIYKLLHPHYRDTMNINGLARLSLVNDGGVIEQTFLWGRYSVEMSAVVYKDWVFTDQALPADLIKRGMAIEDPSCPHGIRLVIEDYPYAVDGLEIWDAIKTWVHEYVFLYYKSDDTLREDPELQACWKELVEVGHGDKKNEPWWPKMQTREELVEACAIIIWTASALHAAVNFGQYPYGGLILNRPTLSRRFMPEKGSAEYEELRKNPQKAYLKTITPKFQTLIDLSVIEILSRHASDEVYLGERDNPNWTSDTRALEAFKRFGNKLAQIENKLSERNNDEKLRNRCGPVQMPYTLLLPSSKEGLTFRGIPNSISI
Method: The anti-inflammatory effect of the synthesized compounds was initially evaluated in vitro, via their ability to inhibit soybean lipoxygenase (LOX-3).
Lipoxygenase activity was determined using soybean lipoxygenase (250 U/mL) and sodium linoleate (100 μM) as substrate, in Tris–HCl buffer pH 9.0. The test compounds dissolved in methanol were added and the reaction was monitored for 5 min at 28 °C, recording absorbance at 234 nm.

[5] = tested on: experimentally induced hyperlipidemic mouse model; assay: Tyloxapol (Triton WR 1339)-induced hyperlipidemia; assay type: in vivo, mice; conditions: 84 μmol/kg i.p.; 24 h after tyloxapol
Method: Acute hyperlipidemia was achieved, i.p., by the administration of tyloxapol (Triton WR 1339). The antihyperlipidemic effect of the tested compounds was evaluated as the decrease in total cholesterol (TC) and triglyceride (TG) levels in plasma 24 h after tyloxapol administration. The results are shown in Figure 4A,B. Compounds 9 and 10 reduced TC levels in plasma by 73% and 50%, respectively, and TG levels by 76% and 41%, respectively.
An aqueous solution of Triton WR 1339 was given, i.p., to mice (400 mg/kg of body weight) and one hour later the test compounds (84 μmol/kg of body weight), dissolved in saline or saline only were administered, i.p. After 24 h, blood was taken from the aorta/heart and used for the determination of plasma total cholesterol (TC) and triglyceride (TG) levels, using commercially available kits. Levels of plasma lipids were determined in duplicate while the values presented were the mean from eight animals (per compound).

[6] = tested on: carrageenan-induced mouse paw edema; conditions: cited from earlier work
[7] = tested on: rat/mouse microsomal lipid peroxidation; set-up: method as in doi:10.1002/(SICI)1098-2299(199905)47:1<9::AID-DDR2>3.0.CO; conditions: after 45 min of incubation; read-out: IC50 against microsomal lipid peroxidation; cited from earlier work
[8] = after 5 min of incubation, sodium linoleate 100 μM, pH 9.0, read-out: IC50 Value on LOX-3

Compound: Cc1c(Cl)cccc1Nc1ccccc1COC(=O)C1(C)CCc2c(C)c(O)c(C)c(C)c2O1 (centres unmarked) [Compound 16, 2-((3-chloro-2-methylphenyl)amino)benzyl 6-hydroxy-2,5,7,8-tetramethylchromane-2-carboxylate]
inhibition in vivo at 300 µmol/kg [1]: 54% | IC50 [3]: 47 µM | melting point: 150.4 to 151.3 °C | reduction of total cholesterol (TC) levels in plasma [5]: 55% | reduction of triglyceride (TG) levels in plasma [5]: 78% | IC50 [4, 8]: 54 µM

Compound: CC(C)Cc1ccc(C(C)C(=O)O)cc1 (centres unmarked) [a, Ibuprofen]
% Edema Reduction ([6]; 0.30 mmol/kg i.p.): 57*** [5] %

Compound: O=C(O)Cc1ccccc1Nc1c(Cl)cccc1Cl [k, Diclofenac]
% Edema Reduction ([6]; 0.30 mmol/kg i.p.): 61*** [5] %

Compound: Cc1cccc(Nc2ccccc2COC(=O)c2cc(C(C)(C)C)c(O)c(C(C)(C)C)c2)c1C [Compound 10, 2-((2,3-dimethylphenyl)amino)benzyl 3,5-di-tert-butyl-4-hydroxybenzoate]
inhibition in vivo at 300 µmol/kg [1]: 54% | improvement in edema reduction [1]: 1.5–2 fold | melting point: 136.3 to 136.9 °C | reduction of total cholesterol (TC) levels in plasma [5]: 50% | reduction of triglyceride (TG) levels in plasma [5]: 41% | IC50 [4, 8]: 15 µM

Compound: Cc1cccc(Nc2ccccc2C(=O)O)c1C [i, Mefenamic acid, reference compound]
inhibition in vivo at 300 µmol/kg [1]: 35% | IC50 [7]: 130 µM

Compound: Cc1c(Cl)cccc1Nc1ccccc1C(=O)O [e, Tolfenamic acid]
% Edema Reduction ([6]; 0.30 mmol/kg i.p.): 60*** [5] % | IC50 [7]: 250 µM

Compound: O=C(O)c1ccccc1Nc1cccc(C(F)(F)F)c1 [g, Flufenamic acid]
% Edema Reduction ([6]; 0.15 mmol/kg i.p.): 19**^a [17] %

Compound: COc1ccc2c(c1)c(CCOC(=O)C1(C)CCc3c(C)c(O)c(C)c(C)c3O1)c(C)n2C(=O)c1ccc(Cl)cc1 (centres unmarked) [Compound 17, 2-(1-(4-chlorobenzoyl)-5-methoxy-2-methyl-1H-indol-3-yl)ethyl 6-hydroxy-2,5,7,8-tetramethylchromane-2-carboxylate]
inhibition in vivo at 300 µmol/kg [1]: 45% | IC50 [3]: 76 µM | IC50 [4, 8]: > 150 µM

Compound: CC(C)(C)c1cc(CO)cc(C(C)(C)C)c1O [BHBA, 3,5-di-tert-butyl-4-hydroxybenzyl alcohol, reference compound]
inhibition in vivo at 300 µmol/kg [1]: 71% | IC50 [2]: 10 µM | IC50 [3]: 160 µM | LOX-3 inhibitory activity (in words) [4]: little or no inhibitory activity

Compound: COc1ccc2c(c1)c(CC(=O)O)c(C)n2C(=O)c1ccc(Cl)cc1 [m, Indomethacin]
% Edema Reduction ([6]; 0.30 mmol/kg i.p.): 55*** [5] %

More lines, main results first:

IC50 [2]: 25 µM | IC50 [3]: 33 µM | LOX-3 inhibitory activity (in words) [4]: little or no inhibitory activity
Compound: Cc1c(C)c2c(c(C)c1O)CCC(C)(C(=O)O)O2 (centres unmarked) [Trolox, 6-hydroxy-2,5,7,8-tetramethylchromane-2-carboxylic acid, reference compound]
inhibition in vivo at 300 µmol/kg [1]: 46%

IC50 [2]: 257 µM | IC50 [3]: 31 µM | LOX-3 inhibitory activity (in words) [4]: little or no inhibitory activity
Compound: CC(C)(C)c1cc(C(=O)O)cc(C(C)(C)C)c1O [BHB, 3,5-di-tert-butyl-4-hydroxybenzoic acid, reference compound]
inhibition in vivo at 300 µmol/kg [1]: 53%

melting point: 85 to 86 °C | IC50 [4, 8]: 41 µM
Compound: COc1ccc2cc(C(C)C(=O)OCc3cc(C(C)(C)C)c(O)c(C(C)(C)C)c3)ccc2c1 (centres unmarked) [Compound 3, 3,5-di-tert-butyl-4-hydroxybenzyl 2-(6-methoxynaphthalen-2-yl)propanoate]
% Edema Reduction ([6]; 0.15 mmol/kg i.p.): 78**^a [11] %

IC50 [3]: 34 µM | melting point: 69.2 to 70 °C | IC50 [4, 8]: > 150 µM
Compound: Cc1c(C)c2c(c(C)c1O)CCC(C)(C(=O)OCC(C)c1ccc(CC(C)C)cc1)O2 (centres unmarked) [Compound 14, 2-(4-isobutylphenyl)propyl6-hydroxy-2,5,7,8-tetramethylchromane-2-carboxylate]
inhibition in vivo at 300 µmol/kg [1]: 42%

IC50 [2]: 5 µM | IC50 [4, 8]: 108 µM
Compound: Cc1cccc(Nc2ccccc2C(=O)OCc2cc(C(C)(C)C)c(O)c(C(C)(C)C)c2)c1C [Compound 9, 3,5-di-tert-butyl-4-hydroxybenzyl 2-((2,3-dimethylphenyl)amino)benzoate]
inhibition in vivo at 300 µmol/kg [1]: 63% | improvement in edema reduction [1]: 1.5–2 fold | reduction of total cholesterol (TC) levels in plasma [5]: 73% | reduction of triglyceride (TG) levels in plasma [5]: 76%

IC50 [3]: 147 µM | IC50 [4, 8]: 9 µM
Compound: COc1ccc2cc(C(C)COC(=O)C3(C)CCc4c(C)c(O)c(C)c(C)c4O3)ccc2c1 (centres unmarked) [Compound 15, 2-(6-methoxynaphthalen-2-yl)propyl 6-hydroxy-2,5,7,8-tetramethylchromane-2-carboxylate]
inhibition in vivo at 300 µmol/kg [1]: 55% | reduction of total cholesterol (TC) levels in plasma [5]: 42% | reduction of triglyceride (TG) levels in plasma [5]: 65%

melting point: 87.2 to 88 °C | IC50 [4, 8]: 152 µM
Compound: CC(C)(C)c1cc(COC(=O)c2ccccc2Nc2cccc(C(F)(F)F)c2)cc(C(C)(C)C)c1O [Compound 7, 3,5-di-tert-butyl-4-hydroxybenzyl 2-((3-(trifluoromethyl)phenyl)amino)benzoate]
inhibition in vivo at 300 µmol/kg [1]: 38% | improvement in anti-inflammatory activity ([1]; compared to parent flufenamic acid (g) or flufenamol (h)): 2–2.5 fold

IC50 [4]: 25 µM
Compound: COc1ccc2cc([C@H](C)C(=O)O)ccc2c1 [c, Naproxen, reference compound]
% Edema Reduction ([6]; 0.30 mmol/kg i.p.): 51** [11] %
